Experimental data: paper PMC9186531, “Biochemical and structural characterization of the flavodoxin-like domain of the Schizosaccharomyces japonicus putative tRNA ^Phe 4-demethylwyosine synthase Tyw1 in complex with FMN” (microPublication Biology, 2022)

Target: T1, Tyw1 30-251 (Schizosaccharomyces japonicus, UniProt B6K6D6)
T1 construct: flavodoxin-like domain with N-terminal extension, residues 30-251; N-terminal TRX-6His or MBP-6His tag with TEV site, tag cleaved; E. coli KRX; monomer; calculated mass 24940 Da, MS 25010 Da
T1 sequence (B6K6D6 30-251): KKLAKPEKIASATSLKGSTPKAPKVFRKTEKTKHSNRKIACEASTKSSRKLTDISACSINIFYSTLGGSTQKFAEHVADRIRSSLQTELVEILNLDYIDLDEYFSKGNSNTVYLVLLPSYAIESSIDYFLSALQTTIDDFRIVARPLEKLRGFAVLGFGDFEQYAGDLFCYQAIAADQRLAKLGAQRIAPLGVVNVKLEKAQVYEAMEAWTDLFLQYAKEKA
Assay: X-ray crystal structure (molecular replacement, […] A)
Format: binding
Conditions: co-purified oxidized FMN; crystals pH 8.5, 288 K; unit occupancy

Question: With `Cc1cc2nc3c(=O)[nH]c(=O)nc-3n(C[C@H](O)[C@H](O)[C@H](O)COP(=O)(O)O)c2cc1C` [FMN] as the molecule, how does the “X-ray crystal structure (molecular replacement, 1.5 A)” value read?
Answer: FMN density was strong and was modeled with unit occupancy in both structures.
